Results on 11 molecules are retold here after PubChem BioAssay (NCI).

Test systems include M14 melanoma; RPMI-8226 leukemia; HS 578T breast; OVCAR-5 ovarian; EKVX NSCLC; HOP-92 NSCLC; SK-MEL-2 melanoma; SNB-75 CNS; DMS 273 small cell lung; LXFL 529 NSCLC; DMS 114 small cell lung.
Holding throughout (experiment): growth of human tumour cells (NCI), 48 h

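Five compound concentrations were applied to cells in 96-well plates for 48 hours; endpoints were derived by simple linear interpolation of the resulting dose-response curve. At the GI50, growth is halved. TGI: concentration producing complete growth inhibition.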

With `COC(=O)c1c2c(c(C)[n+]([O-])c1C)C(=O)C=C(NCc1cccc(OC)c1)C2=O`, the GI50 is 0.405 µM in the assay with M14 melanoma; 0.848 µM in the assay on RPMI-8226 leukemia; 1.64 µM in the assay with HS 578T breast; 1.31 µM in the assay with OVCAR-5 ovarian; 1.01 µM in the assay with EKVX NSCLC; 1.99 µM in the assay on HOP-92 NSCLC. Besides, the GI50 with SK-MEL-2 melanoma was 1.15 µM; in the assay with SNB-75 CNS, 1.64 µM. For the same molecule, the TGI stood at 1.54 µM in the assay on M14 melanoma; 4.29 µM in the assay with RPMI-8226 leukemia; 6.25 µM in the assay on HS 578T breast; 2.77 µM with OVCAR-5 ovarian; 2.26 µM in the assay with EKVX NSCLC; 4.7 µM in the assay on HOP-92 NSCLC. Besides, the TGI with SK-MEL-2 melanoma was 2.78 µM; in the assay with SNB-75 CNS it was 3.01 µM.
`CN(C)c1ccc(/C=C2\CNC/C(=C\c3ccc(N(C)C)cc3)C2=O)cc1`: the TGI with M14 melanoma was greater than 100 µM; in the assay on RPMI-8226 leukemia, greater than 100 µM; in the assay on DMS 273 small cell lung it was 27.6 µM; in the assay on LXFL 529 NSCLC, 98.2 µM; in the assay with OVCAR-5 ovarian, greater than 100 µM; in the assay with EKVX NSCLC it was greater than 100 µM. In addition, the values for the TGI in the assay on HOP-92 NSCLC, with SNB-75 CNS and in the assay on DMS 114 small cell lung were 55.2 µM, 27.2 µM and 34.7 µM, respectively.
`COc1cc2cc(Oc3ccc(NC(=O)Nc4ccccc4)cc3)c(C)nc2cc1OCCN1CCCCC1`: the GI50 in the assay on M14 melanoma was 5.63 µM; in the assay on RPMI-8226 leukemia, 3.52 µM; with HS 578T breast, 5.79 µM; in the assay with OVCAR-5 ovarian, 6 µM; with EKVX NSCLC it was 5.22 µM; with HOP-92 NSCLC it was 2.72 µM. Also, the GI50 is 5.96 µM with SK-MEL-2 melanoma and 3.76 µM in the assay on SNB-75 CNS. Further, the TGI was found to be 11.1 µM in the assay on M14 melanoma; 10.8 µM in the assay on RPMI-8226 leukemia; 14.2 µM in the assay with HS 578T breast; 11.5 µM with OVCAR-5 ovarian; 10.9 µM with EKVX NSCLC; 7.66 µM in the assay with HOP-92 NSCLC. Also, the values for the TGI with SK-MEL-2 melanoma and in the assay with SNB-75 CNS were 12.1 µM and 8.74 µM, respectively.
Take `O=C(O)CCC1COc2ccccc2O1` (centres undefined): the TGI in the assay on M14 melanoma, in the assay on RPMI-8226 leukemia, in the assay with HS 578T breast, in the assay with OVCAR-5 ovarian, in the assay on EKVX NSCLC and in the assay on HOP-92 NSCLC was greater than 10 µM in each case. The TGI with SK-MEL-2 melanoma and with SNB-75 CNS was greater than 10 µM each time.
On to `O=C(Nc1cnn2ccc(N3CCC[C@@H]3c3cc(F)ccc3F)nc12)N1CC[C@H](O)C1`, for which the GI50 in the assay with M14 melanoma, with RPMI-8226 leukemia, in the assay with HS 578T breast, in the assay on OVCAR-5 ovarian, with EKVX NSCLC and in the assay on HOP-92 NSCLC was greater than 100 µM each time. Moreover, the GI50 in the assay with SK-MEL-2 melanoma and with SNB-75 CNS was greater than 100 µM in each case. Besides, the TGI in the assay on M14 melanoma, in the assay with RPMI-8226 leukemia, in the assay with HS 578T breast, in the assay on OVCAR-5 ovarian, in the assay with EKVX NSCLC and in the assay with HOP-92 NSCLC was greater than 100 µM in each case. Further, the TGI in the assay with SK-MEL-2 melanoma and in the assay on SNB-75 CNS was greater than 100 µM throughout.
Take `COc1ccc(NC(=O)C(=O)NNC(=O)c2sc(NNC(C)=O)nc2C)c([N+](=O)[O-])c1`: the TGI with M14 melanoma, in the assay on RPMI-8226 leukemia, in the assay on DMS 273 small cell lung, in the assay on LXFL 529 NSCLC, in the assay with OVCAR-5 ovarian and in the assay on EKVX NSCLC was greater than 100 µM throughout. Also, the TGI in the assay with HOP-92 NSCLC, in the assay with SK-MEL-2 melanoma and in the assay with DMS 114 small cell lung was greater than 100 µM each time.
Take `C(CCc1nnc2c(n1)CCCC2)Cc1nnc2c(n1)CCCC2`: the TGI in the assay on M14 melanoma, with RPMI-8226 leukemia, in the assay on HS 578T breast, in the assay with OVCAR-5 ovarian, in the assay on EKVX NSCLC and with HOP-92 NSCLC was greater than 100 µM in each case. Besides, the TGI with SK-MEL-2 melanoma and in the assay with SNB-75 CNS was greater than 100 µM in each case.
For the molecule `Cc1cc(N(CCC#N)CCC#N)ccc1/C=C(\NC(=O)/C=C/c1ccccc1)NC(=O)Nc1ccc(Cl)cc1`, the TGI in the assay with M14 melanoma, with RPMI-8226 leukemia, in the assay with DMS 273 small cell lung, in the assay with LXFL 529 NSCLC, in the assay with OVCAR-5 ovarian and with EKVX NSCLC was greater than 100 µM throughout. The TGI with HOP-92 NSCLC, in the assay on SK-MEL-2 melanoma and in the assay on DMS 114 small cell lung was greater than 100 µM each time.
As to `CC[N+](CC)=c1ccc2nc3c(cc(NCc4ccccc4)c4ccccc43)oc-2c1`, the GI50 in the assay on M14 melanoma was 0.273 µM; in the assay on RPMI-8226 leukemia it was 0.0949 µM; in the assay with HS 578T breast it was 0.522 µM; in the assay with OVCAR-5 ovarian, 0.681 µM; with EKVX NSCLC it was 0.159 µM; with HOP-92 NSCLC it was 0.217 µM. Also, the GI50 in the assay with SK-MEL-2 melanoma was 0.737 µM; with SNB-75 CNS it was 0.385 µM. The TGI is 0.75 µM with M14 melanoma; 0.539 µM in the assay on RPMI-8226 leukemia; 3.27 µM in the assay with HS 578T breast; 2.19 µM with OVCAR-5 ovarian; 0.944 µM with EKVX NSCLC; 1.33 µM with HOP-92 NSCLC. Also, the TGI with SK-MEL-2 melanoma worked out at 2.25 µM; in the assay with SNB-75 CNS, 0.808 µM.
In the case of `Cc1cc(Cc2cc(C)c(NC(=O)C(=O)C3C(=O)NC(=S)NC3=O)c(C(C)C)c2)cc(C(C)C)c1NC(=O)C(=O)C1C(=O)NC(=S)NC1=O`, the TGI in the assay with M14 melanoma, in the assay on RPMI-8226 leukemia, in the assay on DMS 273 small cell lung, with LXFL 529 NSCLC, in the assay with OVCAR-5 ovarian and with EKVX NSCLC was greater than 100 µM throughout. Besides, the TGI with HOP-92 NSCLC, with SNB-75 CNS and with DMS 114 small cell lung was greater than 100 µM each time.
Take `CC1C=C(OC(=O)c2ccccc2)C(=O)C(n2cc(F)c(=O)n(C(=O)c3ccccc3)c2=O)O1` (centres undefined): the TGI in the assay on M14 melanoma, in the assay with RPMI-8226 leukemia, in the assay with DMS 273 small cell lung, with EKVX NSCLC, in the assay on HOP-92 NSCLC and with SK-MEL-2 melanoma was greater than 100 µM in each case. The TGI is 91.9 µM in the assay on SNB-75 CNS and greater than 100 µM with DMS 114 small cell lung.
